Data set [1] can be described thus: Plasma protein binding by rapid equilibrium dialysis. The note with it: mouse. For orientation: In equilibrium dialysis only unbound substance equilibrates across the membrane.
Data set [2] can be described thus: Metabolic stability in human liver microsomes. It counts as in vitro ADME. The note with it: 5 µM, 0.5 mg/mL microsomal protein, NADPH, up to 30 min.
Data set [3] can be described thus: Metabolic stability in mouse liver microsomes. It counts as in vitro ADME. The note with it: 5 µM, 0.5 mg/mL microsomal protein, NADPH, up to 30 min.
The nature of data set [4]: In vivo pharmacokinetics after oral and IV administration. On the set-up: species or system Balb/C mice.
Data set [5] can be described thus: Stability of rottlerin in plasma under storage conditions. The note with it: n=4. It counts as in vitro ADME, mice.
Data set [6] can be described thus: Plasma stability in mice plasma. The note with it: 0–2 h, 10 µM, 37°C.
Setting [7] is: intravenous, 1 mg/kg, Balb/C mice.
Setting [8] is: male, Balb/C, mouse, plasma, iv, 1 mg/kg.
Setting [9] is: male, Balb/C, mouse, plasma, po, 4 mg/kg.

Structures can show the parent of a compound that is named as a salt.

Turning to `CNC(=C[N+](=O)[O-])NCCSCc1ccc(CN(C)C)o1` [ranitidine, ranitidine hydrochloride], the fraction unbound (in general, free concentration divided by total concentration) at 4 h, 5 µM in data set [1] was 0.793.
As for `CC(=O)c1c(O)c(C)c(O)c(Cc2c(O)c3c(c(C(=O)/C=C/c4ccccc4)c2O)OC(C)(C)C=C3)c1O` [Rottlerin], the “remained intact in HLMs” value in data set [2] was “over 91%”. Also, the “remained intact in MLMs” value in data set [3] is more than 75%. In addition, the Cl in data set [4] (setting [7]) was 5.83 ± 0.5 mL/min/kg; in data set [4] (intravenous, 1 mg/kg, Balb/C mice, listed as rottlerin) it was not above 17 mL/min/kg; in data set [4] (oral, 4 mg/kg, Balb/C mice) it was 16.8 ± 1.3 mL/min/kg; in data set [4] (oral, 4 mg/kg, Balb/C mice, listed as rottlerin), not above 17 mL/min/kg. Moreover, the T1/2 in data set [4] (setting [7]) is 2.9 ± 0.8 h; in data set [4] (oral, 4 mg/kg, Balb/C mice), 2.7 ± 0.4 h. Besides, the Vd in data set [4] (setting [7]) worked out at 1.4 ± 0.4 L/kg; in data set [4] (oral, 4 mg/kg, Balb/C mice), 3.8 ± 0.6 L/kg. Further, the “exposure (plasma levels)” value is approximately 3000 ng·h/mL in data set [4] (iv, 1 mg/kg, Balb/C mice) and “around 4 μg h/mL” in data set [4] (oral, 4 mg/kg, Balb/C mice). The AUC(0-inf) (commonly total exposure, with the tail of the curve extrapolated) in data set [4] (setting [8]) stood at 2920 ± 292 ng·h/mL; in data set [4] (setting [9]) it was 4090 ± 348 ng·h/mL. Moreover, the area under the curve AUC(0-t) (commonly the area under the concentration-time curve up to a stated or last time point) in data set [4] (setting [8]) came out at 2850 ± 311 ng·h/mL; in data set [4] (setting [9]), 4050 ± 360 ng·h/mL. The C0 in data set [4] (setting [8]) was determined as 2110 ± 359 ng/mL. Also, the half-life (commonly how long it takes for the measured level to halve) in data set [4] (male, Balb/C, mouse, plasma, iv, 1 mg/kg, T1/2, intravenous, Balb/C mice) is more than 2 h; in data set [4] (male, Balb/C, mouse, plasma, po, 4 mg/kg, T1/2, oral, Balb/C mice), more than 2 h. The highest concentration (Cmax) (commonly the maximum level reached in the sampled fluid or tissue) in data set [4] (setting [9]) came to 660 ± 60 ng/mL. Further, the Tmax (commonly the time from dosing to the highest level) in data set [4] (male, Balb/C, mouse, plasma, po, 4 mg/kg, Tmax, Balb/C mice) was approximately 2.4 h. Moreover, the oral bioavailability in data set [4] (oral 4 mg/kg vs IV 1 mg/kg, Balb/C mice) is 35–36%. Moreover, the “stability study accuracy (%)” value is on record as 92.89% in data set [5] (autosampler: processed samples, 4 °C, 24 h, HQC 800 ng/mL); 90.04% in data set [5] (autosampler: processed samples, 4 °C, 24 h, LQC 5.7 ng/mL); 91.69% in data set [5] (freeze–thaw: three cycles, −20 °C / room temperature, HQC 800 ng/mL); 88.60% in data set [5] (freeze–thaw: three cycles, −20 °C / room temperature, LQC 5.7 ng/mL). Also, the “degradation in mice plasma” value in data set [6] was less than 5%.
